Measured values as given in patent publication US20070225255A1, “Use of Mitochondrially Targeted Antioxidant in the Treatment of Liver Diseases and Epithelial Cancers” (priority 2004, published 2007).

Test system: hemoxygenase 1 (HO-1)
Experiment: Western blot of hemoxygenase 1 in liver extracts of DDC intoxicated mice
Assay type: in vivo, mouse
Settings: DDC 3 days, daily i.p. MitoQ in PBS/1% DMSO (112 nmol/kg), versus DDC intoxicated mice
Protocol: To evaluate hemoxygenase 1 (HO-1) protein expression know to be induced by oxidative stress (Suematsu M. and Ishimura Y., 2000, Hepatology, 31(1): 3-6) standard western blot analysis is performed using protein extracts derived from DDC intoxicated mice treated simultaneously for 3 days with MitoQ (diluted in 1% DMSO in PBS) or just vehicle itself (see protocols in Example 3).
Liver tissues are resuspended in ice-cold RIPA-buffer (50 mM Tris-HCl pH 7.4, 250 mM NaCl, 0.1% SDS, 1% deoxycholate, 1% NP-40) supplemented with 2 μg/ml leupeptin, 2 μg/ml pepstatin, 2 μg/ml aprotinin, 1 mM phenylmethylsulfonylfluoride (PMSF), and 2 mM dithiothreitol followed by homogenization through sonication (2 bursts of 5 seconds) on ice. After incubation for 20 minutes on ice, the lysates are cleared by two centrifugational steps in a microcentrifuge at 13 000 rpm for 15 minutes at 4° C. and the supernatants are collected. Protein concentrations are determined by the Bradford assay (Biorad) using bovine serum albumin as a standard. […] The intensities of the bands can be analysed densitometrically using ChemiImager 5500 software (Alpha Innotech) and each signal normalised to the intensity of the corresponding HO-2 (showing 7 fold reduction of HO-1 upon MitoQ treatment when compared to DDC intoxicated group of animals), or alternatively to β-actin.

With MitoQ the “reduction of HO-1 protein expression normalised to HO-2” value was 7 fold.
